Test results taken from US11559528B2, “BACE1 inhibition for the treatment of cancer” (The Cleveland Clinic Foundation, priority 2019, dated 2023).
“Also recorded” adds a separate entry of the source.

Legend:
[1] = tested on: GBM xenografts derived from T4121 GSCs; test: Intracranial GBM xenografts from T4121 glioma stem cells; type: in vivo, mouse
Text: FIG. 4, panels A-F. BACE1 Inhibition by MK-8931 Converts M2 TAMs into M1 Macrophages to Phagocytize Glioma Cells in GBM Xenografts. (A and B) Density analysis of M2 TAMs by immunofluorescent staining of the M2 TAM marker (CD163 or FIZZ1) and the total TAM marker IBA1 and in GBM xenografts treated with MK-8931 or vehicle control. GBM xenografts were established by implantation of glioma stem cells (T4121) through intracranial injection. […] Representative immunofluorescent images (A) showing M2 TAMs (CD163^+ or FIZZ1^+, in red) and total TAMs (IBA1^+, in green) in the MK-8931-treated or control GBM xenografts. […] (C and D) Density analysis of M1 TAMs by immunofluorescent staining of the M TAM marker (HLA-DR or CD11c) and the total TAM marker IBA1 and in GBM xenografts treated with MK-8931 or vehicle control. […] Representative immunofluorescent images (C) showing M1 TAMs (HLA-DR^+ or CD11c^+, in red) and total TAMs (IBA1^+, in green) in the MK-8931-treated or control GBM xenografts. […] (E and F) In vivo phagocytosis of TAMs against human glioma cells in the MK-8931-treated or control GBM xenografts. […] Representative images (E) showing in vivo TAM phagocytosis as inclusion bodies of glioma cells (TRA-1-85^+, in red) with TAMs (IBA1, in green) in the MK-8931 treated GBM xenografts but not in the control tumors. […] Scale bar represents 30 μM. Ctl: Control; MK: MK-8931.

[2] = tested on: GBM xenografts derived from T4121 GSCs; test: MK-8931 combined with low dose irradiation in T4121 GBM xenografts
Procedure: Glioma stem cells (T4121 GSCs) expressing luciferase were transplanted into mouse brains through intracranial injection to establish orthotopic GBM xenografts. Irradiation (2 Gy) was performed on Day 8 and Day 16. […] Representative bioluminescent images (B) at day 7 (before treatment) and day 15 (treatment for one week) are shown. […] Data are shown as mean±SEM. * p<0.05, ** p<0.01, * ** p<0.001, and NS (not significant)≥0.05 as indicated; Student's t-test. Ctl: Control; IR: Irradiation. […] Data are shown as mean±SEM. Log-rank analysis was used to assess the significance. Significances were shown as indicated. Ctl: Control; IR: irradiation.
Frozen xenograft sections were co-immunostained with specific antibodies against IBA1 (in green) and CD163 (in red) or HLA-DR (in red) and counterstained with DAPI (in blue). Representative immunofluorescent images showing the staining of IBA1 and the M2 TAM marker CD163 (A) or IBA1 and the M1 TAM marker HLA-DR (B) in the GBM xenografts. […] (D and E). […] Frozen xenografts sections were immunostained with a specific antibody against cleaved caspase-3 (in green) and counterstained with DAPI (in blue). […] Data are shown as mean±SEM from at least 5 images of 3-5 mice. * p<0.05 and ** p<0.01; Student's t-test. Scale bar represents 3 μM. Ctl: Control; IR: Irradiation; CC-3: Cleaved caspase-3.
Seven days after the implantation, IVIS was performed twice per week to monitor the tumor growth under the Spectrum CT Imaging System (PerkinElmer) before and after treatment. […] Mouse brains bearing the tumors were collected for immunofluorescent, histochemical and histological analyses.
Irradiation (IR) was performed with the Pantek X-ray irradiator (once per week) at low dose (2 Gy). To protect the mice and limit the side effect of irradiation, anesthetized mice were covered by a lead plate and only the tumor implantation sites were exposed to the fractioned radiation. Mice were sacrificed at the indicated time points or upon the appearance of the neurological signs. […] Only animals with accidental death (for example, due to infection or intracranial injection) were excluded from the data analysis.
Primary antibodies were added to the sections or cells and incubated overnight at 4° C. […] After the incubation of the primary antibodies, the sections or cells were washed three times with cold PBS for five minutes each and then incubated with the secondary antibodies for one hour at room temperature. […] Finally, images were captured by a fluorescence microscopy (Leica DM4000) and further analyzed with ImageJ software.

[3] = tested on: U937-derived M2 macrophages; test: Immunoblot of macrophage markers in U937-derived M2 macrophages; parameters: expression of M2 macrophage markers (CD163 and ARG1): dose or concentration left out as unconfirmed
Procedure: In brief, U937 cells were primed by PMA (5 nM) for two days to generate M0 macrophages and then incubated with IL4 (20 ng/mL), IL10 (20 ng/mL), and TGFβ (20 ng/mL) for three days to produce M2-like macrophages. (B) Immunoblot analyses of BACE1, the M2 macrophage markers (CD163 and ARG1), and the total macrophage marker IBA1 in U937 monocytes and the U937-derived M2 macrophages expressing shRNAs against BACE1 (shBACE1) or non-targeting sequence (NT). […] (D) Immunoblot analyses of the M2 macrophage markers (CD163 and ARG1), the M1 macrophage markers (iNOS and HLA-DR), and the total macrophage marker IBA1 in the U937-derived M2 macrophages expressing shRNAs against BACE1 (shBACE1: #1 or #2) or non-targeting control (shNT). The U937-derived M2 macrophages were transduced with shBACE1 shNT through lentiviral infection.
In brief, U937 cells grown in a 10-cm tissue culture dish were primed by PMA (5 nM) for two days to produce M0 macrophages. Then the M0 macrophages were further induced by IL4 (20 ng/mL, Peprotech, 200-04), IL10 (20 ng/mL, Peprotech, 200-10), and TGFβ (20 ng/mL, Peprotech, 200-21) for three days to generate M2 macrophages.
In brief, cells were lysed with the RIPA buffer [50 mM TrisHCl (pH7.4), 150 mM NaCl, 2 mM EDTA, 1% (v/v) NP-40, 0.1% (w/v) SDS, protease inhibitor (one tablet per 10 mL RIPA buffer, Roche)] for 20 minutes on ice. […] The lysates were collected and subjected to SDS-PAGE and blotted onto the PVDF membranes (ASI, XR730). After blockade with 5% (w/v) non-fat milk (RPI, M17200) in TBST, the membranes were incubated with primary antibodies overnight at 4° C. After the incubation of the first antibodies, the membranes were washed three times with TBST for ten minutes each. Then, the membranes were incubated with the second HRP-linked antibodies in the 5% milk for one hour at room temperature.

GSCs (T387 and T4121) = test: Immunoblot of apoptotic markers in glioma stem cells; type: cell-based, human; conditions: MK-8931 50 μg/mL, different times
Procedure: FIG. 16, panels A-E. MK-8931 Treatment Had Little Effect on Glioma Stem Cells. (A and B) Tumorsphere formation assay to examine the effect of MK-8931 treatment on glioma stem cells (GSCs). Representative images (A) of tumorsphere derived from T4121 GSCs treated with MK-8931 (50 μg/mL) or the vehicle control. Quantifications (B) show the number and size of tumorsphere derived from T4121 GSCs treated with MK-8931 (50 μg/mL) or the control. Data are shown as mean±SEM. NS (not significant)≥0.05, Student's t-test. […] GAPDH was blotted as loading control. (D) Immunoblot analysis of the apoptotic markers cleaved-PARP and cleaved caspase-3 in GSCs (T387 and T4121) treated with MK-8931 (50 μg/mL), etoposide (Etop, 1 μM), or the vehicle control for different time as indicated. GAPDH was blotted as loading control. […] Ctl: Control; Etop: Etoposide. (E) Cell viability assay to examine the effect of MK-8931 treatment on proliferation of glioma stem cells. […] Data are shown as mean±SEM. NS (not significant)≥0.05, Student's t-test.

[4] = 30 mg/kg once daily oral gavage two weeks
[5] = 30 mg/kg once daily oral gavage two weeks, p<0.001
[6] = IR 2 Gy on Day 8 and Day 16 plus MK-8931 30 mg/kg once daily oral from Day 9, 30 mg/kg
[7] = 0, 5, 10, 25, 50, and 100 μg/mL for three days
[8] = 50 μg/mL for 0, 12, 24, 48, 72, or 96 hours

CN1C(N)=N[C@](C)(c2cc(NC(=O)c3ccc(F)cn3)ccc2F)CS1(=O)=O [MK-8931]
IBA1+/pSTAT3+ double positive cells (TAMs) [1, 4]: significantly reduced STAT3 activating phosphorylation in TAMs
pSTAT3+ cells in xenografts [1, 4]: significantly reduced STAT3 activating phosphorylation in GBM xenografts
density of M1 TAMs (HLA-DR+/IBA1+ or CD11c+/IBA1+) [1, 5]: significantly increased density of M1 TAMs
density of M2 TAMs (CD163+/IBA1+ or FIZZ1+/IBA1+) [1, 5]: significantly reduced density of M2 TAMs
in vivo TAM phagocytosis (inclusion bodies of TRA-1-85+ glioma cells with IBA1+ TAMs) ([1]; 30 mg/kg once daily oral gavage, p<0.01): promoted TAM phagocytosis
survival (Kaplan-Meier), IR plus MK-8931 [2, 6]: synergized with MK-8931 treatment to extend survival of the tumor-bearing animals; also recorded: longest survival extension among four experimental groups
tumor growth (mean bioluminescence), IR plus MK-8931 [2, 6]: significantly synergized with MK-8931 treatment to inhibit GBM tumor growth; also recorded: strongest inhibition on GBM growth
TAM subtype (CD163+ M2 vs HLA-DR+ M1), IR plus MK-8931 ([2]; IR (2×2 Gy) plus MK-8931): effectively converted M2 TAMs (CD163+) into M1 macrophages (HLA-DR^+)
apoptosis (fraction of cleaved caspase-3+ cells), IR plus MK-8931 ([2]; IR (2×2 Gy) plus MK-8931 30 mg/kg, mean±SEM): 25.9±3.1%
apoptosis (fraction of cleaved caspase-3+ cells), MK-8931 treatment alone ([2]; MK-8931 30 mg/kg alone, mean±SEM): 10.4±0.9%
M1 marker expression (iNOS and HLA-DR), dose series [3, 7]: induced M1 marker expression
M2 marker expression (CD163 and ARG1), dose series [3, 7]: inhibited M2 marker expression in a dose-dependent manner
M1 marker expression (iNOS and HLA-DR), time course [3, 8]: induced M1 marker expression in a time-dependent fashion
M2 marker expression (CD163 and ARG1), time course [3, 8]: inhibited M2 marker expression
M2 to M1 switch with ectopic expression of constitutively activated STAT3 (STAT3-C) ([3]; MK-8931 50 μg/mL three days, STAT3-C-Flag vs vector): attenuated the M2 to M1 switch induced by MK-8931 treatment
expression of total macrophage marker IBA1 ([3]; MK-8931 (50 g/mL) three days): little effect
expression of M2 macrophage markers (CD163 and ARG1) ([3]; MK-8931 three days): reduced expression of the M2 macrophage markers
apoptotic markers cleaved-PARP and cleaved caspase-3 (GSCs (T387 and T4121)): did not induce apoptosis in GSCs in vitro
